According to patent publication US9980943B2, “Methods of treating muscular dystrophy” (BOARD OF REGENTS OF THE NEVADA SYSTEM OF HIGHER EDUCATION, …, priority 2013, dated 2018):
Where two headings read alike, the source gives them in different places. Values belong to the molecule of their own block, whether it stands above or below them.

System: α7 integrin (LacZ reporter in α7LacZ+/− myoblasts)
Assay: qHTS of the LOPAC library and MLSMR (online screen, α7LacZ+/− myoblasts)
Conditions: for activation at 0.307 µM / activation at 1.53 µM / activation at 7.66 µM / activation at 38.3 µM / Emax / EC50: Mus musculus, Myoblast; for activation at 0.307 µM: read-out: Activity at 0.307 uM [%] **; for activation at 1.53 µM: read-out: Activity at 1.530 uM [%] **; for activation at 7.66 µM: read-out: Activity at 7.660 uM [%] **; for activation at 38.3 µM: read-out: Activity at 38.30uM [%] **; for EC50: read-out: Fit LogAC50 (converted)
[1] = 48 h, read-out: Fit Infinite Activity [%]

Compound: Cc1cc(NC(=O)CCC(=O)N(Cc2cccnc2)C(C(=O)NC(C)(C)C)c2ccccc2Cl)no1 (centres unmarked) [Compound 29]
activation at 0.307 µM (48 h): -23.8%
activation at 1.53 µM (48 h): -13.5%
activation at 7.66 µM (48 h): 36%
activation at 38.3 µM (48 h): 54.9%
Emax [1]: 55.7%
EC50: 3.98 µM

EC50: 3.98 µM
Compound: COc1cc(/C=C2/C(=N)N3C(SC)=NSC3=NC2=O)ccc1OC(=O)c1ccco1 [Compound 30]
activation at 0.307 µM (48 h): -18.3%
activation at 1.53 µM (48 h): -9.07%
activation at 7.66 µM (48 h): 55.5%
activation at 38.3 µM (48 h): 73.4%
Emax [1]: 73.6%

EC50: 2.51 µM
Compound: COc1ccccc1CNc1cc(C)ccn1 [Compound 31]
activation at 0.307 µM (48 h): -22.9%
activation at 1.53 µM (48 h): -0.943%
activation at 7.66 µM (48 h): 53.2%
activation at 38.3 µM (48 h): 62.3%
Emax [1]: 62.2%

Compound: Cc1nn(C(C)(C)C)c(C)c1/C=N/OC(=O)Nc1ccc(Cl)c(Cl)c1 [Compound 32]
Curve Description: Complete
activation at 0.307 µM (48 h): -28.1%
activation at 1.53 µM (48 h): -9.46%
activation at 7.66 µM (48 h): 51%
activation at 38.3 µM (48 h): 59.8%
Emax [1]: 60.2%
EC50: 2.82 µM

Compound: CCOC(=O)C1CCCN(C(=O)CNS(=O)(=O)c2ccc(Br)s2)C1 (centres unmarked) [Compound 33]
activation at 0.307 µM (48 h): -41.8%
activation at 1.53 µM (48 h): -14.3%
activation at 7.66 µM (48 h): 17%
activation at 38.3 µM (48 h): 31.1%
Emax [1]: 33.2%
EC50: 2 µM

EC50: 1.41 µM
Compound: CCCCNC(=O)CSc1nnc(Cc2ccc(Cl)c(Cl)c2)c(O)n1 [Compound 34]
activation at 0.307 µM (48 h): 9.41%
activation at 1.53 µM (48 h): 43.8%
activation at 7.66 µM (48 h): 74.3%
activation at 38.3 µM (48 h): 75.4%
Emax [1]: 76.4%

Compound: O=Cc1ccc(C(=O)OCC(=O)N2CCCC2)cc1 [Compound 35]
activation at 0.307 µM (48 h): 0%
activation at 1.53 µM (48 h): 12%
activation at 7.66 µM (48 h): 71.5%
activation at 38.3 µM (48 h): 71.8%
Emax [1]: 72.6%
EC50: 2.51 µM

EC50: 3.16 µM
Compound: CC(C)/N=C(\S)NN=C1CCCCCCCCCCC1 [Compound 36]
activation at 0.307 µM (48 h): 7.67%
activation at 1.53 µM (48 h): 25.7%
activation at 7.66 µM (48 h): 65.1%
activation at 38.3 µM (48 h): 78.6%
Emax [1]: 81.2%

Compound: COc1ccc(S(=O)(=O)N(NC2=NS(=O)(=O)c3ccccc32)C(=O)C(C)C)cc1 [Compound 37]
activation at 0.307 µM (48 h): -1.77%
activation at 1.53 µM (48 h): 15.3%
activation at 7.66 µM (48 h): 70.7%
activation at 38.3 µM (48 h): 72.9%
Emax [1]: 74.5%
EC50: 2.51 µM

EC50: 4.47 µM
Compound: C/C(CC(=O)Nc1ccc(Cl)c(C(F)(F)F)c1)=N\NC(=O)c1cnccn1 [Compound 38]
activation at 0.307 µM (48 h): -0.625%
activation at 1.53 µM (48 h): -2.88%
activation at 7.66 µM (48 h): 69.2%
activation at 38.3 µM (48 h): 72.7%
Emax [1]: 73.5%

Compound: Cc1ccc(-c2onc3ccc(C(=O)/C=C/N(C)C)cc23)cc1 [Compound 39]
activation at 0.307 µM (48 h): -7.76%
activation at 1.53 µM (48 h): 5.51%
activation at 7.66 µM (48 h): 52.9%
activation at 38.3 µM (48 h): 69.1%
Emax [1]: 69.5%
EC50: 3.55 µM

Compound: Cc1cccn2c(=O)c3cc(C(=O)NC4CCCCC4)n(C)c3nc12 [Compound 40]
activation at 0.307 µM (48 h): -13.7%
activation at 1.53 µM (48 h): 5.58%
activation at 7.66 µM (48 h): 25.2%
activation at 38.3 µM (48 h): 427%
Emax [1]: 433%
EC50: 14.1 µM

Compound: COc1ccc(Cl)cc1NC(=O)CC(=O)Nc1cc(Cl)ccc1OC [Compound 41]
activation at 0.307 µM (48 h): 8.75%
activation at 1.53 µM (48 h): 9.71%
activation at 7.66 µM (48 h): 34.1%
activation at 38.3 µM (48 h): 453%
Emax [1]: 457%
EC50: 14.1 µM

Compound: COc1cc(/C=C/CN2CCN(Cc3ccc(C)o3)C(CCO)C2)ccc1O (centres unmarked) [Compound 42]
activation at 0.307 µM (48 h): 20.1%
activation at 1.53 µM (48 h): 0%
activation at 7.66 µM (48 h): 32.1%
activation at 38.3 µM (48 h): 481%
Emax [1]: 485%
EC50: 14.1 µM

Compound: O=C(Cn1cccc1C(=O)c1ccccc1)NCCCc1ccccc1 [Compound 43]
activation at 0.307 µM (48 h): 13.7%
activation at 1.53 µM (48 h): 43.9%
activation at 7.66 µM (48 h): 94.3%
activation at 38.3 µM (48 h): 131%
Emax [1]: 148%
EC50: 3.98 µM

Compound: CC(=O)Nc1ccc(N(C(=O)c2cnccn2)C(C(=O)NC2CCCCC2)c2ccc(F)cc2)cc1 (centres unmarked) [Compound 44]
activation at 0.307 µM (48 h): -13.5%
activation at 1.53 µM (48 h): -18.8%
activation at 7.66 µM (48 h): 38.1%
activation at 38.3 µM (48 h): 308%
Emax [1]: 311%
EC50: 11.2 µM

EC50: 14.1 µM
Compound: CCOC(=O)C1=C(NC(=O)c2ccc(OC)c(S(=O)(=O)N3CCCCC3C)c2)Nc2ccccc2N=C1CC (centres unmarked) [Compound 45]
Score: 47
activation at 0.307 µM (48 h): -16.6%
activation at 1.53 µM (48 h): 0.0514%
activation at 7.66 µM (48 h): 18.6%
activation at 38.3 µM (48 h): 414%
Emax [1]: 420%
Emax (read-out: Max Response [%]): 414%

Compound: COc1ccc(N2CCCC2)c(NC(=O)c2ccc([N+](=O)[O-])o2)c1 [Compound 46]
activation at 0.307 µM (48 h): -29.7%
activation at 1.53 µM (48 h): 4.44%
activation at 7.66 µM (48 h): 77.6%
activation at 38.3 µM (48 h): 156%
Emax [1]: 196%
EC50: 7.94 µM

Compound: CC(=O)Nc1ccc(NC(=O)[C@@H](NC(=O)c2cccc(C)c2)C(C)C)cc1 [Compound 47]
activation at 0.307 µM (48 h): 17.2%
activation at 1.53 µM (48 h): 32.2%
activation at 7.66 µM (48 h): 97.3%
activation at 38.3 µM (48 h): 142%
Emax [1]: 154%
EC50: 5.62 µM

EC50: 7.08 µM
Compound: O=C(O)c1cc(/N=C/c2c(O)oc3ccccc3c2=O)ccc1O [Compound 48]
activation at 0.307 µM (48 h): -32%
activation at 1.53 µM (48 h): -23.3%
activation at 7.66 µM (48 h): 76.6%
activation at 38.3 µM (48 h): 165%
Emax [1]: 179%

Compound: O=[N+]([O-])c1ccc(N2CCN(c3ccccc3F)CC2)nc1 [Compound 49]
activation at 0.307 µM (48 h): 2.3%
activation at 1.53 µM (48 h): 15.5%
activation at 7.66 µM (48 h): 102%
activation at 38.3 µM (48 h): 151%
Emax [1]: 154%
EC50: 5.62 µM

EC50: 7.94 µM
Compound: O=C1SC(Cc2ccccc2)C(=O)N1c1ccccc1 (centres unmarked) [Compound 50]
activation at 0.307 µM (48 h): 7.9%
activation at 1.53 µM (48 h): 9.4%
activation at 7.66 µM (48 h): 94.1%
activation at 38.3 µM (48 h): 176%
Emax [1]: 186%

Compound: Cc1ccc(NCc2nnc(SCC(=O)Nc3nnc(C)s3)n2C)cc1 [Compound 51]
activation at 0.307 µM (48 h): -27.9%
activation at 1.53 µM (48 h): -17.6%
activation at 7.66 µM (48 h): 31.4%
activation at 38.3 µM (48 h): 249%
Emax [1]: 250%
EC50: 10 µM

Compound: CC1CCCCN1c1ncnc(N)c1[N+](=O)[O-] (centres unmarked) [Compound 52]
activation at 0.307 µM (48 h): -25.7%
activation at 1.53 µM (48 h): 1.73%
activation at 7.66 µM (48 h): 86.4%
activation at 38.3 µM (48 h): 130%
Emax [1]: 138%
EC50: 4.47 µM

Compound: O=C(Nc1ccc(Cl)cc1N1CCOCC1)C1CCCCC1 [Compound 53]
activation at 0.307 µM (48 h): 0%
activation at 1.53 µM (48 h): 28.1%
activation at 7.66 µM (48 h): 71.9%
activation at 38.3 µM (48 h): 119%
Emax [1]: 152%
EC50: 7.08 µM

Compound: CCCn1c(-c2cc(OC)c(OC)c(OC)c2)nc2c1c(=O)[nH]c(=O)n2Cc1ccccc1 [Compound 54]
activation at 0.307 µM (48 h): 42%
activation at 1.53 µM (48 h): 58.6%
activation at 7.66 µM (48 h): 120%
activation at 38.3 µM (48 h): 213%
Emax [1]: 262%
EC50: 12.6 µM
Emax (read-out: Max Response [%]): 213%

Compound: CS(=O)(=O)c1ccc(Cl)c(NC(=O)CSc2nncn2-c2ccccc2)c1 [Compound 55]
activation at 0.307 µM (48 h): -24.6%
activation at 1.53 µM (48 h): -12.1%
activation at 7.66 µM (48 h): 3.46%
activation at 38.3 µM (48 h): 252%
Emax [1]: 253%
EC50: 12.6 µM
Emax (read-out: Max Response [%]): 252%
